In article PMC5780263 (Xenobiotica; the fate of foreign compounds in biological …, 2017):

Assays:
[1] = biological target: T1, CYP2A6 (Homo sapiens, UniProt P11509); settings: previous studies, ref Shimada et al., 2016a; cited from earlier work
T1 sequence (P11509 1-494): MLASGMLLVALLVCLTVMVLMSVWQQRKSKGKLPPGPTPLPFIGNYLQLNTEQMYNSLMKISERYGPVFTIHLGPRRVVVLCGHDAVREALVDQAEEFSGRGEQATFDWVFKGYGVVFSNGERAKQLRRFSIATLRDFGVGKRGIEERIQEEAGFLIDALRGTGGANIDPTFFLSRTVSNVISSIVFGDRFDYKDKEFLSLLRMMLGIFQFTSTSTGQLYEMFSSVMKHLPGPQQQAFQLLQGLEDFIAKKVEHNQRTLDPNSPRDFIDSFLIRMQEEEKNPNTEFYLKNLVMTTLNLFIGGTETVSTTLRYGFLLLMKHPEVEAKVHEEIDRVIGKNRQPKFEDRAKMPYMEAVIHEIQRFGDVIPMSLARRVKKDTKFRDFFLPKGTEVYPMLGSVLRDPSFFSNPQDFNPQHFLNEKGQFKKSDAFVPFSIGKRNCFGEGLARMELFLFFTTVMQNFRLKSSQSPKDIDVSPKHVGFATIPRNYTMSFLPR

[2] = system: CYP1A1, 1A2, 1B1.1, 1B1.3, 2D6, 2E1, 2C9, and 3A4; experiment: Spectral binding titration with other purified human P450 enzymes; settings: authors' assay conditions
[3] = biological target: T2, CYP1A1 (Homo sapiens, UniProt P04798); format: in vitro ADME; settings: 10 µM substrate, 37 °C, 20 min, HPLC-fluorescence
T2 sequence (P04798 1-512): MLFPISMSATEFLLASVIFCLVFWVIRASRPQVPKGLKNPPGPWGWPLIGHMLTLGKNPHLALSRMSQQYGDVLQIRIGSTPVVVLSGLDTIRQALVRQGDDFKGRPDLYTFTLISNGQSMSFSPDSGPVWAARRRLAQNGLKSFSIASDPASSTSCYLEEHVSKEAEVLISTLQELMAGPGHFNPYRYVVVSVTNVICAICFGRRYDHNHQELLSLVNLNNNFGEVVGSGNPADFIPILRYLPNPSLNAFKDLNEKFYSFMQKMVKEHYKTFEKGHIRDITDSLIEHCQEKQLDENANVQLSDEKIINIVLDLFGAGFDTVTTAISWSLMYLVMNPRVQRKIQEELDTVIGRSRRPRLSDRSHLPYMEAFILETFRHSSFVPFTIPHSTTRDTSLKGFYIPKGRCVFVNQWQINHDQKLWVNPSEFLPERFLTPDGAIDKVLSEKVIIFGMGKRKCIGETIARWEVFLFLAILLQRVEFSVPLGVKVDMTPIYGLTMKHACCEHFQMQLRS

[4] = biological target: T3, CYP1B1.1 (Homo sapiens, UniProt Q16678); format: in vitro ADME; settings: 10 µM substrate, 37 °C, 20 min, HPLC-fluorescence
T3 sequence (Q16678 1-543): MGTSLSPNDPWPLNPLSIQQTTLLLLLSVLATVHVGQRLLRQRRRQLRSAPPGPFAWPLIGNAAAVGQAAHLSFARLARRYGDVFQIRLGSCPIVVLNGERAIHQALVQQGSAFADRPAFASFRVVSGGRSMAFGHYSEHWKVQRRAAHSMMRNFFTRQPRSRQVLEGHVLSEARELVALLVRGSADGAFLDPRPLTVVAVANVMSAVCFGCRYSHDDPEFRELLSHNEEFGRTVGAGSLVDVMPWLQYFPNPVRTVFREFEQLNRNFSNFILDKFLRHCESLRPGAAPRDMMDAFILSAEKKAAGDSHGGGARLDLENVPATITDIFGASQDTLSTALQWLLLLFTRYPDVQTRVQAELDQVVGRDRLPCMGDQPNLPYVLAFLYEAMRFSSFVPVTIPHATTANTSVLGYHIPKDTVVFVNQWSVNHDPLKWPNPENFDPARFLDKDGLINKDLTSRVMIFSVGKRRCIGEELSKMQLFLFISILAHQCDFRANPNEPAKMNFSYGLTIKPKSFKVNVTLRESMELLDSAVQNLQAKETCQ

[5] = biological target: T4, CYP2A13.1 (Homo sapiens, UniProt Q16696); format: in vitro ADME; settings: 10 µM substrate, 37 °C, 20 min, b5 added, HPLC-fluorescence
T4 sequence (Q16696 31-494 limits assumed): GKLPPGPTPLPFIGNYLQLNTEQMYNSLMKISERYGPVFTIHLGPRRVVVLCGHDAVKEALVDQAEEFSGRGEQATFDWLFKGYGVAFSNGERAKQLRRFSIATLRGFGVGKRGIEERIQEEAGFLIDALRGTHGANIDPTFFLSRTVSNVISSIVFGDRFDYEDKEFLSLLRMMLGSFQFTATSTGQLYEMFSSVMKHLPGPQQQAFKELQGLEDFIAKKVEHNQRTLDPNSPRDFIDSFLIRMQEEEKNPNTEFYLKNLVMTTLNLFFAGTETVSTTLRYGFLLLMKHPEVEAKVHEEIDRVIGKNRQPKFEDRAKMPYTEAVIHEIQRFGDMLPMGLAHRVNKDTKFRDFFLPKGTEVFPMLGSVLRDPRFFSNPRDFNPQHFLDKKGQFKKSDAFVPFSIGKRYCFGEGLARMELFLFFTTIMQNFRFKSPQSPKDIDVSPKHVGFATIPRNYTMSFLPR

SMILES	Type I binding spectra [1]	Spectral changes [2]	Hydroxylated products formed [3]	Hydroxylated products formed [4]	Hydroxylated products formed [5]
CC(=O)c1ccc2ccc3cccc4ccc1c2c34 [1-acetylpyrene]	do not show detectable Type I binding spectra	–	–	–	–
Clc1ccc2ccc3cccc4ccc1c2c34 [1-chloropyrene]	–	did not show any detectable spectral changes	produced 8-, 6-, and 3-hydroxylated products at significant levels	only formed the 6-hydroxy product	catalyzed hydroxylation at the 8- and 3-positions
O=[N+]([O-])c1ccc2ccc3cccc4ccc1c2c34 [1-nitropyrene]	do not show detectable Type I binding spectra	–	–	–	–
c1cc2ccc3cccc4ccc(c1)c2c34 [pyrene]	do not show detectable Type I binding spectra	–	–	–	–
